Publication PMC8335354 (Biology of Reproduction, 2021)
Entries after “also recorded” stand apart in the source; their conditions may differ.

Key:
[1] = test system: parthenogenetic embryos (zygotic gene activation); experiment: Transcriptional activity; format: cell-based, mouse; settings: 2 mM EU from 5 h to 24 h after activation
[2] = test system: pups derived from HDAC inhibitor-treated SCNT-derived embryos; experiment: Body and placental weights of cloned pups at term; format: in vivo, mouse; settings: 19.5 dpc, mean ± SD
[3] = test system: mouse SCNT-derived embryos; experiment: In vivo development of SCNT-derived embryos, two-cell transfer; settings: for No. of implantations / No. of offspring / No. of placentas only / implantations (%) / offspring (%) / placentas only (%): 8 h treatment, two-cell transfer
[4] = test system: mouse SCNT-derived embryos; experiment: In vitro development of SCNT-derived embryos treated with HDAC inhibitors; format: cell-based
[5] = test system: mouse SCNT-derived embryos; experiment: In vivo development of SCNT-derived embryos, morula/blastocyst transfer; settings: 8 h treatment
[6] = test system: mouse SCNT-derived embryos; settings: cited from earlier work
[7] = inhibitor treatment 8 h, Table 4

O=C(CCCCC[C@@H]1NC(=O)[C@H]2CCCN2C(=O)[C@@H]2CCCCCCCCCC[C@@H](NC1=O)C(=O)N2)NO [Ky-309]
EU fluorescence intensity / effect on ZGA at the two-cell stage [1]: no adverse effects on ZGA | Body weight at term (g ± SD) [2]: 1.61 ± 0.21 g | Placental weight at term (g ± SD) [2]: 0.31 ± 0.05 g | No. of implantations ([3]; 0.5 nM): 32 | No. of offspring ([3]; 0.5 nM): 1 | No. of placentas only ([3]; 0.5 nM): 0 (0) | implantations (%) ([3]; 0.5 nM): 38.1% | offspring (%) ([3]; 0.5 nM): 1.2% | placentas only (%) ([3]; 0.5 nM): 0 (0) % | No. of implantations ([3]; 1 nM): 21 | No. of offspring ([3]; 1 nM): 0 (0) | No. of placentas only ([3]; 1 nM): 0 (0) | implantations (%) ([3]; 1 nM): 30.9% | offspring (%) ([3]; 1 nM): 0 (0) % | placentas only (%) ([3]; 1 nM): 0 (0) % | No. of implantations ([3]; 5 nM): 33 | No. of offspring ([3]; 5 nM): 1 | No. of placentas only ([3]; 5 nM): 2 | implantations (%) ([3]; 5 nM): 50.0% | offspring (%) ([3]; 5 nM): 1.5% | placentas only (%) ([3]; 5 nM): 3.0% | No. of two-cell embryos at 24 h ([4]; 0.5 nM, 8 h treatment, Table 2): 251 | two-cell embryos at 24 h (%) ([4]; 0.5 nM, 8 h treatment, Table 2): 87.2% | No. of two-cell embryos at 24 h ([4]; 1 nM, 8 h treatment, Table 2): 190 | two-cell embryos at 24 h (%) ([4]; 1 nM, 8 h treatment, Table 2): 76.9% | No. of four-cell embryos at 48 h ([4]; 5 nM, 8 h treatment, Table 1): 89 | No. of morula/blast at 72 h ([4]; 5 nM, 8 h treatment, Table 1): 61 | No. of two-cell embryos at 24 h ([4]; 5 nM, 8 h treatment, Table 1): 106 | four-cell embryos at 48 h (% per 2 cells) ([4]; 5 nM, 8 h treatment, Table 1): 84.0% | morula/blast at 72 h (% per 2 cells) ([4]; 5 nM, 8 h treatment, Table 1): 57.5% | two-cell embryos at 24 h (%) ([4]; 5 nM, 8 h treatment, Table 1): 93.8% | No. of two-cell embryos at 24 h ([4]; 5 nM, 8 h treatment, Table 2): 66 | two-cell embryos at 24 h (%) ([4]; 5 nM, 8 h treatment, Table 2): 90.4% | No. of four-cell embryos at 48 h ([4]; 100 nM, 8 h treatment, Table 1): 27 | No. of morula/blast at 72 h ([4]; 100 nM, 8 h treatment, Table 1): 6 | No. of two-cell embryos at 24 h ([4]; 100 nM, 8 h treatment, Table 1): 58 | four-cell embryos at 48 h (% per 2 cells) ([4]; 100 nM, 8 h treatment, Table 1): 46.6% | morula/blast at 72 h (% per 2 cells) ([4]; 100 nM, 8 h treatment, Table 1): 10.3% | two-cell embryos at 24 h (%) ([4]; 100 nM, 8 h treatment, Table 1): 84.0% | developmental block / embryotoxicity in SCNT-derived embryos (in words) ([4]; treatment at the one-cell stage): embryonic toxicity; also recorded: moderate two-cell developmental block | No. of cloned offspring ([5]; 5 nM): 0 (0) | No. of implantations ([5]; 5 nM): 4 | No. of placentas only ([5]; 5 nM): 0 (0) | cloned offspring (%) ([5]; 5 nM): 0 (0) % | implantations (%) ([5]; 5 nM): 19.0% | placentas only (%) ([5]; 5 nM): 0 (0) % | No. of cloned offspring ([5]; 100 nM): 1 | No. of implantations ([5]; 100 nM): 4 | No. of placentas only ([5]; 100 nM): 1 | cloned offspring (%) ([5]; 100 nM): 16.7% | implantations (%) ([5]; 100 nM): 66.7% | placentas only (%) ([5]; 100 nM): 16.7%

CC(/C=C/C(=O)NO)=C\[C@@H](C)C(=O)c1ccc(N(C)C)cc1 [TSA, trichostatin A, reference compound]
EU fluorescence intensity / effect on ZGA at the two-cell stage [1]: no adverse effects on ZGA | Body weight at term (g ± SD) [2]: 1.57 ± 0.15 g | Placental weight at term (g ± SD) [2]: 0.28 ± 0.07 g | No. of implantations ([3]; 5 nM): 69 | No. of offspring ([3]; 5 nM): 8 | No. of placentas only ([3]; 5 nM): 3 | implantations (%) ([3]; 5 nM): 63.3% | offspring (%) ([3]; 5 nM): 7.3% | placentas only (%) ([3]; 5 nM): 2.8% | pup rates (birth rates of clones), range over both transfer series ([3]; morula/blastocyst and two-cell transfer experiments): 6.7–7.3% | No. of four-cell embryos at 48 h ([4]; 5 nM, 8 h treatment, Table 1): 45 | No. of morula/blast at 72 h ([4]; 5 nM, 8 h treatment, Table 1): 32 | No. of two-cell embryos at 24 h ([4]; 5 nM, 8 h treatment, Table 1): 49 | four-cell embryos at 48 h (% per 2 cells) ([4]; 5 nM, 8 h treatment, Table 1): 91.8% | morula/blast at 72 h (% per 2 cells) ([4]; 5 nM, 8 h treatment, Table 1): 65.3% | two-cell embryos at 24 h (%) ([4]; 5 nM, 8 h treatment, Table 1): 76.5% | No. of two-cell embryos at 24 h ([4]; 5 nM, 8 h treatment, Table 2): 133 | two-cell embryos at 24 h (%) ([4]; 5 nM, 8 h treatment, Table 2): 86.9% | Blastocysts at 96 h (% per two cells) [4, 7]: 68.2% | Morulae at 96 h (% per two cells) [4, 7]: 0 (0) % | No. of embryos at 96 h, Blastocysts [4, 7]: 15 | No. of embryos at 96 h, Morulae [4, 7]: 0 (0) | No. of four-cell embryos at 48 h [4, 7]: 19 | No. of two-cell embryos at 24 h [4, 7]: 22 | four-cell embryos at 48 h (% per two cells) [4, 7]: 86.4% | two-cell embryos at 24 h (%) [4, 7]: 100% | pup rates per embryos transferred ([6]; mouse SCNT-derived embryos): more than 5% | No. of cloned offspring ([5]; 5 nM): 1 | No. of implantations ([5]; 5 nM): 6 | No. of placentas only ([5]; 5 nM): 0 (0) | cloned offspring (%) ([5]; 5 nM): 6.7% | implantations (%) ([5]; 5 nM): 40.0% | placentas only (%) ([5]; 5 nM): 0 (0) %

CCCC(CCC)C(=O)O [VPA, valproic acid]
effect on mouse SCNT [6]: no effect
